US8017612B2, “Piperazine compound and use thereof as a HCV polymerase inhibitor” (priority 2006, dated 2011)

Columns and labels:
[1] = molecular target: T1, HCV polymerase (NS5B) type 1a (Hepatitis C virus genotype 1a, UniProt P26664); assay: Assay of enzyme (HCV polymerase) inhibitory activity, type 1a enzyme; type: biochemical, HCV type 1a (cloned from the blood of patients); settings: HCV polymerase inhibitory activity IC50, 1a, type 1a enzyme
T1 construct: made in house; host or cells: Escherichia coli (by the 'similar method' of the 1b enzyme)
In short: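 NS5B Δ47 C-term His6 (type 1a, 1.5 μg/ml); substrate RNA 5 μg/ml; ATP/GTP/CTP 50 μM, UTP 2 μM + [5,6-3H]UTP; Tris pH 7.5, MgCl2 5 mM; 25° C, 60 min. TCA/pyrophosphate stop, GF/B filter, scintillation. IC50 vs no-compound control.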

[2] = molecular target: T2, HCV polymerase (NS5B) type 1b (Hepatitis C virus genotype 1b, UniProt P26663); assay: Assay of enzyme (HCV polymerase) inhibitory activity, type 1b enzyme; type: biochemical, HCV BK strain (type 1b); settings: HCV polymerase inhibitory activity IC50, 1b, type 1b enzyme
T2 construct: a region encoding NS5B (J Virol 1991 March, 65(3), 1105-13, 544 amino acids after deletion of 47 amino acids on the C-terminal); 6xHis (C); made in house; host or cells: Escherichia coli
In short: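 Rxn: NS5B 1b (BK, ΔC47, His6) 0.5 μg/ml; substrate RNA 5 μg/ml; ATP/GTP/CTP 50 μM, UTP 2 μM + [5,6-3H]UTP; 20 mM Tris pH 7.5, 5 mM MgCl2, 50 mM NaCl, 1 mM EDTA/DTT. 25 °C, 60 min. Stop with TCA/pyrophosphate, filter, scintillation count; IC50 vs. untreated.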

Structure (SMILES) | IC50 [1] [µM] | IC50 [2] [µM]
O=C(NCc1ccc(OC(F)(F)F)c(F)c1)[C@H]1CN(c2nc3nc(C4CC4)ncc3s2)CCN1S(=O)(=O)c1ccc(OC(F)(F)F)cc1 [Example 1102, (R)-4-(5-cyclopropyl-thiazolo[4,5-d]pyrimidin-2-yl)-1-(4-trifluoromethoxy-benzenesulfonyl)-piperazine-2-carboxylic acid 3-fluoro-4-trifluoromethoxy-benzylamide] | < 0.1 | < 0.1
CC(=O)N1CCN(S(=O)(=O)c2ccc(OC(F)(F)F)cc2)[C@@H](C(=O)NCc2ccc(OC(F)(F)F)c(F)c2)C1 [Example 1103, (R)-4-acetyl-1-(4-trifluoromethoxy-benzenesulfonyl)-piperazine-2-carboxylic acid 3-fluoro-4-trifluoromethoxy-benzylamide] | 0.1 to 1 | 0.1 to 1
O=C(O)c1cncc2sc(N3CCN(S(=O)(=O)c4ccc(OC(F)(F)F)cc4)[C@@H](C(=O)NCc4ccc(OC(F)(F)F)cc4)C3)nc12 [Example 1104, 2-[(R)-4-(4-trifluoromethoxy-benzenesulfonyl)-3-(4-trifluoromethoxy-benzylcarbamoyl)-piperazin-1-yl]-thiazolo[5,4-c]pyridine-7-carboxylic acid] | < 0.1 | < 0.1
O=C(NCc1ccc(OC(F)(F)F)cc1)[C@H]1CN(c2nn3c(CO)cc(=O)nc3s2)CCN1S(=O)(=O)c1ccc(OC(F)(F)F)cc1 [Example 1105] | 0.1 to 1 | < 0.1
O=C(O)Cn1ncc2sc(N3CCN(S(=O)(=O)c4ccc(OC(F)(F)F)cc4)[C@@H](C(=O)NCc4ccc(OC(F)(F)F)cc4)C3)nc2c1=O [Example 1106, {4-oxo-2-[(R)-4-(4-trifluoromethoxy-benzenesulfonyl)-3-(4-trifluoromethoxy-benzylcarbamoyl)-piperazin-1-yl]-4H-thiazolo[4,5-d]pyridazin-5-yl}-acetic acid] | < 0.1 | < 0.1
O=C(NCc1ccc(OC(F)(F)F)cc1)[C@H]1CN(c2nc3nc(C4CC4)[nH]c(=O)c3s2)CCN1S(=O)(=O)c1ccc(C(F)(F)F)cc1 [Example 1107, (R)-4-(5-cyclopropyl-7-oxo-6,7-dihydro-thiazolo[4,5-d]pyrimidin-2-yl)-1-(4-trifluoromethyl-benzenesulfonyl)-piperazine-2-carboxylic acid 4-trifluoromethoxy-benzylamide] | 0.1 to 1 | < 0.1
O=C(NCc1ccc(OC(F)(F)F)cc1)[C@H]1CN(c2nc3nc(C4CC4)[nH]c(=O)c3s2)CCN1S(=O)(=O)c1ccc(OC(F)(F)F)cc1 [Example 1108, (R)-4-(5-cyclopropyl-7-oxo-6,7-dihydro-thiazolo[4,5-d]pyrimidin-2-yl)-1-(4-trifluoromethoxy-benzenesulfonyl)-piperazine-2-carboxylic acid 4-trifluoromethoxy-benzylamide] | 0.1 to 1 | < 0.1
O=C(O)c1cncc2sc(N3CCN(S(=O)(=O)c4ccc(OC(F)(F)F)cc4)[C@@H](C(=O)NCc4ccc(OC(F)F)c(F)c4)C3)nc12 [Example 1109, 2-[(R)-3-(4-difluoromethoxy-3-fluoro-benzylcarbamoyl)-4-(4-trifluoromethoxy-benzenesulfonyl)-piperazin-1-yl]-thiazolo[5,4-c]pyridine-7-carboxylic acid] | < 0.1 | < 0.1
O=C(NCc1ccc(OC(F)(F)F)cc1)[C@H]1CN(c2nc3nc(C4CC4)ncc3s2)CCN1S(=O)(=O)c1ccc(OC(F)(F)F)cc1F [Example 1110, (R)-4-(5-cyclopropyl-thiazolo[4,5-d]pyrimidin-2-yl)-1-(2-fluoro-4-trifluoromethoxy-benzenesulfonyl)-piperazine-2-carboxylic acid 4-trifluoromethoxy-benzylamide] | < 0.1 | < 0.1
O=C(O)c1cnc(N2CCN(S(=O)(=O)c3ccc(OC(F)(F)F)cc3)[C@@H](C(=O)NCc3ccc(OC(F)F)c(F)c3)C2)cn1 [Example 1111, (R)-3-(4-difluoromethoxy-3-fluoro-benzylcarbamoyl)-4-(4-trifluoromethoxy-benzenesulfonyl)-3,4,5,6-tetrahydro-2H-[1,2′]bipyrazinyl-5′-carboxylic acid] | < 0.1 | < 0.1
O=C(O)CCn1ncc2sc(N3CCN(S(=O)(=O)c4ccc(OC(F)(F)F)cc4)[C@@H](C(=O)NCc4ccc(OC(F)(F)F)cc4)C3)nc2c1=O [Example 1112, 3-{4-oxo-2-[(R)-4-(4-trifluoromethoxy-benzenesulfonyl)-3-(4-trifluoromethoxy-benzylcarbamoyl)-piperazin-1-yl]-4H-thiazolo[4,5-d]pyridazin-5-yl}propionic acid] | < 0.1 | < 0.1
O=C(NCc1ccc(OC(F)F)c(F)c1)[C@H]1CN(c2nc3nc(C4CC4)[nH]c(=O)c3s2)CCN1S(=O)(=O)c1ccc(OC(F)(F)F)cc1 [Example 1113, (R)-4-(5-cyclopropyl-7-oxo-6,7-dihydro-thiazolo[4,5-d]pyrimidin-2-yl)-1-(4-trifluoromethoxy-benzenesulfonyl)-piperazine-2-carboxylic acid 4-difluoromethoxy-3-fluoro-benzylamide] | < 0.1 | < 0.1
O=C(NCc1ccc(OC(F)F)c(F)c1)[C@H]1CN(c2nc3nc(C4CC4)[nH]c(=O)c3s2)CCN1S(=O)(=O)c1ccc(C(F)(F)F)cc1 [Example 1114, (R)-4-(5-cyclopropyl-7-oxo-6,7-dihydro-thiazolo[4,5-d]pyrimidin-2-yl)-1-(4-trifluoromethyl-benzenesulfonyl)-piperazine-2-carboxylic acid 4-difluoromethoxy-3-fluoro-benzylamide] | < 0.1 | < 0.1
CC(=O)N1CCN(S(=O)(=O)c2ccc(C(C)C)cc2)C(C(=O)NCc2ccc(C(F)(F)F)cc2)C1 (centres unmarked) [Example 1115, 4-acetyl-1-(4-isopropyl-benzenesulfonyl)-piperazine-2-carboxylic acid 4-trifluoromethyl-benzylamide] | 0.1 to 1 | > 1
CC(=O)N1CCN(S(=O)(=O)c2ccc(C(C)C)cc2)[C@@H](C(=O)NCc2ccc(C(F)(F)F)cc2)C1 [Example 1116, (R)-4-acetyl-1-(4-isopropyl-benzenesulfonyl)-piperazine-2-carboxylic acid 4-trifluoromethyl-benzylamide] | 0.1 to 1 | 0.1 to 1
CC(=O)N1CCN(S(=O)(=O)c2ccc(C(C)C)cc2)[C@H](C(=O)NCc2ccc(C(F)(F)F)cc2)C1 [Example 1117, (S)-4-acetyl-1-(4-isopropyl-benzenesulfonyl)-piperazine-2-carboxylic acid 4-trifluoromethyl-benzylamide] | > 1 | > 1
O=C(O)Cn1ncc2sc(N3CCN(S(=O)(=O)c4ccc(OC(F)(F)F)cc4)[C@@H](C(=O)NCc4ccc(OC(F)F)c(F)c4)C3)nc2c1=O [Example 1121] | < 0.1 | < 0.1
O=C(O)c1cnc(N2CCN(S(=O)(=O)c3ccc(C(F)(F)F)cc3)[C@@H](C(=O)NCc3ccc(OC(F)F)c(F)c3)C2)cn1 [Example 1122] | < 0.1 | < 0.1
NC(=O)c1cncc2sc(N3CCN(S(=O)(=O)c4ccc(OC(F)(F)F)cc4)[C@@H](C(=O)NCc4ccc(OC(F)(F)F)cc4)C3)nc12 [Example 1123] | < 0.1 | < 0.1
